Test results published in publication PMC5679651, “Complex antigen presentation pathway for an HLA-A*0201-restricted epitope from Chikungunya 6K protein” (PLoS Neglected Tropical Diseases, 2017).
Where two headings read alike, the source gives them in different places. Square brackets hold non-standard residues; d marks the D form. Ends that are not written are not given here. Peptide text beside a SMILES is read from it. * marks the point of attachment. Sta = CC(C)C[C@H](N)[C@@H](O)CC(=O)O; Isovaleryl = CC(C)CC(=O)*

Legend:
[1] = system: CHIKV 6K51-59 epitope presentation by rVACV-CHIKV-infected HLA-A*0201+ DC; assay: cells; type: cell-based, HLA-A*0201-transgenic mice
[2] = molecular target: HLA-A*0201 (Homo sapiens, UniProt P04439, /I218V/L300P/L318F/N151K/N90K/P208A/P217A/Q86G/Q94H/R138H/R169H/T345S); assay: biochemical; type: binding; details: HLA-A*0201-transfected TAP-deficient RMA-S cells, peptide 2 h 26°C then 2 h 37°C, concentration range 0.001-100 μM, mAb PA2.1, flow cytometry, mean ± SD of four independent experiments, read-out: HLA-A*0201 Affinity values, EC50
[3] = molecular target: HLA-A*0201 (Homo sapiens, UniProt P04439, D140Y/D185E/D98H/E176V/E277Q/G131W/G231S/I119V/I121R/I166T/I218V/L300P/L318F/N151K/N90K/P208A/P217A/Q86G/Q94H/R138H/R169H/T345S); assay: biochemical; type: binding; details: HLA-A*0201-transfected TAP-deficient RMA-S cells; for binding to HLA-A*0201 (HLA-peptide surface complexes), in words: MHC-peptide complex stability assay
[4] = system: VACV D12I251-259 epitope presentation by infected HLA-A*0201+ DC; type: cell-based, HLA-A*0201-transgenic mice; details: for percentage of inhibition of recognition by VACV D12I251-259-specific CD8+ T cells: SD
[5] = system: CHIKV 6K peptide-specific CD8+ T cell lines; type: cell-based, HLA-A*0201-transgenic mice; details: ICS
[6] = Mus musculus, T-cell, 5 h, read-out: percentage of inhibition of recognition by CHIKV 6K51-59-specific CD8+ T cells, SD

| Compound | EC50 ([2]; SD) [µM] | effect on recognition by CHIKV 6K51-59-specific CD8+ T cell line, in words [1] | also measured |
| --- | --- | --- | --- |
| CCN(CC)CCCC(C)Nc1ccnc2cc(Cl)ccc12 (stereo not drawn) [CQ, Chloroquine] | – | – | inhibition at 50 µM [1, 6]: 69 ± 19% |
| CC(C)C[C@H](NC(=O)[C@H](CC(C)C)NC(=O)[C@H](CCCNC(=N)N)NC(=O)[C@H](CC(C)C)NC(=O)[C@H](CS)NC(=O)[C@H](CC(N)=O)NC(=O)[C@H](CS)NC(=O)[C@H](CC(C)C)NC(=O)[C@@H](N)C(C)C)C(=O)O [6K 31–39] (H-VLCNCLRLL-OH) | 5 ± 3 | – | – |
| CC(C)C[C@H](NC(=O)[C@@H](O)[C@H](N)Cc1ccccc1)C(=O)O [BEST, Bestatin] | – | unaffected | – |
| CC(C)C[C@H](NC(=O)[C@@H](NC(=O)[C@H](CCCCN)NC(=O)[C@H](CS)NC(=O)[C@H](CS)NC(=O)[C@H](CS)NC(=O)[C@@H]1CCCN1C(=O)[C@H](CC(C)C)NC(=O)[C@H](CC(C)C)NC(=O)[C@@H](N)CCCNC(=N)N)[C@@H](C)O)C(=O)O [6K 37–46] (H-RLLPCCCKTL-OH) | 8 ± 6 | – | – |
| ILDRIITNA [A10L 688-696] | 3 ± 3 | – | – |
| ALIVLCNCL [6K 28–36] | – | – | binding to HLA-A*0201 (HLA-peptide surface complexes), in words [3]: not detected; HLA-A*0201 Affinity values, EC50 ([3]; peptide 2 h 26°C then 2 h 37°C, concentration range 0.001-100 μM, mAb PA2.1, flow cytometry, mean ± SD of four independent experiments): No binding |
| TLAFLAVMSV [6K 45–54] | 1 ± 0.5 | – | – |
| ALIPLAALIV [6K 22–31] | 21 ± 20 | – | – |
| VMSVGAHTV [6K 51–59] | 9 ± 1 | – | – |
| CC(C)C[C@H](N)CS [Leu-SH, Leucinthiol] | – | – | percentage of inhibition of recognition by CHIKV 6K51-59-specific CD8+ T cells ([1]; SD): 91 ± 13%; effect on VACV D12I251-259 epitope presentation, in words [4]: lesser effect |
| O=S(=O)(F)Cc1ccccc1 [PMSF, Phenylmethane sulfonylfluoride] | – | None of these inhibitors affected | – |
| ALIPLAALI [6K 22–30] | 33 ± 28 | – | – |
| QALIPLAAL [6K 21–29] | – | – | EC50 [2]: > 200 µM; binding to HLA-A*0201 (HLA-peptide surface complexes), in words [3]: residual; specific recognition of peptide-pulsed DC by CTL line, in words [5]: no specific recognition |
| c1cnc2c(c1)ccc1cccnc12 [PHE, 1–10 Phenanthroline] | – | None of these inhibitors affected | – |
| Decanoyl-Arg-Val-Lys-Arg-chloromethylketone [dec-RVKR] | – | – | percentage of inhibition of recognition by CHIKV 6K51-59-specific CD8+ T cells ([1]; SD): 43 ± 20%; percentage of inhibition of recognition by VACV D12I251-259-specific CD8+ T cells [4]: 4 ± 6% |
| O=C(O)CN(CCN(CC(=O)O)CC(=O)O)CC(=O)O [EDTA, Ethylenediaminetetraacetic acid] | – | unaffected | – |
| COc1ccc(C[C@H](N)C(=O)N[C@H]2[C@@H](O)[C@H](n3cnc4c(N(C)C)ncnc43)O[C@@H]2CO)cc1 [PURO, Puromycin] | – | – | inhibition at 0.5 µg/mL [1, 6]: 47 ± 21%; percentage of inhibition of recognition by VACV D12I251-259-specific CD8+ T cells [4]: 4 ± 6% |
| CC(=O)N[C@@H](CSC(=O)[C@]1([C@@H](O)C(C)C)NC(=O)[C@H](C)[C@@H]1O)C(=O)O [LC, Lactacystin] | – | – | inhibition at 10 µM [1, 6]: 83 ± 3%; effect on VACV D12I251-259 epitope presentation, in words [4]: lesser effect |
| CC(C)C[C@H](NC(=O)[C@H]1O[C@@H]1C(=O)O)C(=O)NCCCCN=C(N)N [E64] | – | None of these inhibitors affected | – |
| CC(C)CC(=O)N[C@H](C(=O)N[C@H](C(=O)N[C@@H](CC(C)C)[C@@H](O)CC(=O)N[C@@H](C)C(=O)N[C@@H](CC(C)C)[C@@H](O)CC(=O)O)C(C)C)C(C)C [PEPST, Pepstatin] (Isovaleryl-VV[Sta]A[Sta]-OH) | – | None of these inhibitors affected | – |
| C[C@H]1CCC/C=C/[C@@H]2C[C@H](O)C[C@H]2[C@H](O)/C=C/C(=O)O1 [BFA, Brefeldin] | – | completely inhibited | effect on VACV D12I251-259 epitope presentation, in words [4]: complete inhibition |
| CC(=O)N[C@@H](CC(C)C)C(=O)N[C@@H](CC(C)C)C(=O)N[C@H](C=O)CCCNC(=N)N [LEU, Leupeptin] | – | None of these inhibitors affected | – |
